Laboratory results published in PubChem BioAssay (NCI).
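Dose response: 5 concentrations. Exposure: 48 h. Format: 96-well plates. Endpoint: linear interpolation; highest concentration if not reached. TGI marks complete inhibition of growth.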

Key:
Test in all cases: NCI-60 cell line screen, 48 h
CAKI-1 renal = test system: CAKI-1 renal
UACC-62 melanoma = test system: UACC-62 melanoma
RXF 393 renal = test system: RXF 393 renal
UACC-257 melanoma = test system: UACC-257 melanoma
OVCAR-8 ovarian = test system: OVCAR-8 ovarian
CCRF-CEM leukemia = test system: CCRF-CEM leukemia
DMS 114 small cell lung = test system: DMS 114 small cell lung
NCI-H522 lung = test system: NCI-H522 lung
U251 CNS = test system: U251 CNS
HT29 colon = test system: HT29 colon
HCT-116 colon = test system: HCT-116 colon
MALME-3M melanoma = test system: MALME-3M melanoma
SNB-19 CNS = test system: SNB-19 CNS
EKVX NSCLC = test system: EKVX NSCLC
786-0 renal = test system: 786-0 renal
SF-295 CNS = test system: SF-295 CNS
MOLT-4 leukemia = test system: MOLT-4 leukemia
K-562 leukemia = test system: K-562 leukemia
KM12 colon = test system: KM12 colon
SK-MEL-2 melanoma = test system: SK-MEL-2 melanoma
LOX IMVI melanoma = test system: LOX IMVI melanoma
ACHN renal = test system: ACHN renal
HOP-62 NSCLC = test system: HOP-62 NSCLC
OVCAR-5 ovarian = test system: OVCAR-5 ovarian
SK-MEL-28 melanoma = test system: SK-MEL-28 melanoma
SK-OV-3 ovarian = test system: SK-OV-3 ovarian
HL-60(TB) leukemia = test system: HL-60(TB) leukemia
HOP-18 NSCLC = test system: HOP-18 NSCLC
HCC-2998 colon = test system: HCC-2998 colon
A549 NSCLC = test system: A549 NSCLC
UO-31 renal = test system: UO-31 renal
DLD-1 colon = test system: DLD-1 colon
OVCAR-4 ovarian = test system: OVCAR-4 ovarian
TK-10 renal = test system: TK-10 renal
RPMI-8226 leukemia = test system: RPMI-8226 leukemia
OVCAR-3 ovarian = test system: OVCAR-3 ovarian
SW-620 colon = test system: SW-620 colon
M14 melanoma = test system: M14 melanoma
KM20L2 colon = test system: KM20L2 colon
SNB-75 CNS = test system: SNB-75 CNS
LXFL 529 NSCLC = test system: LXFL 529 NSCLC
IGROV1 ovarian = test system: IGROV1 ovarian
SNB-78 CNS = test system: SNB-78 CNS
SF-539 CNS = test system: SF-539 CNS
SF-268 CNS = test system: SF-268 CNS
NCI-H23 lung = test system: NCI-H23 lung
XF 498 CNS = test system: XF 498 CNS
NCI-H226 lung = test system: NCI-H226 lung
NCI-H460 lung = test system: NCI-H460 lung
SN12C renal = test system: SN12C renal
SR leukemia = test system: SR leukemia
A498 renal = test system: A498 renal
COLO 205 colon = test system: COLO 205 colon
PC-3 prostate = test system: PC-3 prostate
MCF7 breast = test system: MCF7 breast
BT-549 breast = test system: BT-549 breast
T-47D breast = test system: T-47D breast
MDA-MB-435 = test system: MDA-MB-435
HS 578T breast = test system: HS 578T breast
DU-145 prostate = test system: DU-145 prostate
HOP-92 NSCLC = test system: HOP-92 NSCLC
MDA-N = test system: MDA-N
NCI/ADR-RES ovarian = test system: NCI/ADR-RES ovarian
HCT-15 colon = test system: HCT-15 colon
MDA-MB-231 breast = test system: MDA-MB-231 breast
SK-MEL-5 melanoma = test system: SK-MEL-5 melanoma

**Q.** `COC(=O)/C(C#N)=C1\CCC(O)N1C` (centres undefined) was tested. Which TGI (CAKI-1 renal) did it give?
**A.** > 100 µM

**Q.** And the TGI (UACC-62 melanoma)?
**A.** > 100 µM

**Q.** And the TGI (RXF 393 renal)?
**A.** > 100 µM

**Q.** What about the TGI (UACC-257 melanoma) of the same compound?
**A.** > 100 µM

**Q.** And the TGI (OVCAR-8 ovarian)?
**A.** > 100 µM

**Q.** And the TGI (CCRF-CEM leukemia)?
**A.** > 100 µM

**Q.** And the TGI (DMS 114 small cell lung)?
**A.** > 100 µM

**Q.** What about the TGI (NCI-H522 lung) of the same compound?
**A.** > 100 µM

**Q.** And the TGI (U251 CNS)?
**A.** > 100 µM

**Q.** And the TGI (HT29 colon)?
**A.** > 100 µM

**Q.** And the TGI (HCT-116 colon)?
**A.** > 100 µM

**Q.** And the TGI (MALME-3M melanoma)?
**A.** > 100 µM

**Q.** And the TGI (SNB-19 CNS)?
**A.** > 100 µM

**Q.** What about the TGI (EKVX NSCLC) of the same compound?
**A.** > 100 µM

**Q.** What about the TGI (786-0 renal) of the same compound?
**A.** > 100 µM

**Q.** And the TGI (SF-295 CNS)?
**A.** > 100 µM

**Q.** And the TGI (MOLT-4 leukemia)?
**A.** > 100 µM

**Q.** And the TGI (K-562 leukemia)?
**A.** > 100 µM

**Q.** What about the TGI (KM12 colon) of the same compound?
**A.** > 100 µM

**Q.** What about the TGI (SK-MEL-2 melanoma) of the same compound?
**A.** > 100 µM

**Q.** And the TGI (LOX IMVI melanoma)?
**A.** > 100 µM

**Q.** What about the TGI (ACHN renal) of the same compound?
**A.** > 100 µM

**Q.** And the TGI (HOP-62 NSCLC)?
**A.** > 100 µM

**Q.** What about the TGI (OVCAR-5 ovarian) of the same compound?
**A.** > 100 µM

**Q.** What about the TGI (SK-MEL-28 melanoma) of the same compound?
**A.** > 100 µM

**Q.** What about the TGI (SK-OV-3 ovarian) of the same compound?
**A.** > 100 µM

**Q.** What about the TGI (HL-60(TB) leukemia) of the same compound?
**A.** > 100 µM

**Q.** And the TGI (HOP-18 NSCLC)?
**A.** > 100 µM

**Q.** What about the TGI (HCC-2998 colon) of the same compound?
**A.** > 100 µM

**Q.** And the TGI (A549 NSCLC)?
**A.** > 100 µM

**Q.** What about the TGI (UO-31 renal) of the same compound?
**A.** > 100 µM

**Q.** And the TGI (DLD-1 colon)?
**A.** > 100 µM

**Q.** And the TGI (OVCAR-4 ovarian)?
**A.** > 100 µM

**Q.** And the TGI (TK-10 renal)?
**A.** > 100 µM

**Q.** What about the TGI (RPMI-8226 leukemia) of the same compound?
**A.** > 100 µM

**Q.** And the TGI (OVCAR-3 ovarian)?
**A.** > 100 µM

**Q.** What about the TGI (SW-620 colon) of the same compound?
**A.** > 100 µM

**Q.** What about the TGI (M14 melanoma) of the same compound?
**A.** > 100 µM

**Q.** What about the TGI (KM20L2 colon) of the same compound?
**A.** > 100 µM

**Q.** What about the TGI (SNB-75 CNS) of the same compound?
**A.** > 100 µM

**Q.** And the TGI (LXFL 529 NSCLC)?
**A.** > 100 µM

**Q.** What about the TGI (IGROV1 ovarian) of the same compound?
**A.** > 100 µM

**Q.** What about the TGI (SNB-78 CNS) of the same compound?
**A.** > 100 µM

**Q.** And the TGI (SF-539 CNS)?
**A.** > 100 µM

**Q.** And the TGI (SF-268 CNS)?
**A.** > 100 µM

**Q.** And the TGI (NCI-H23 lung)?
**A.** > 100 µM

**Q.** What about the TGI (XF 498 CNS) of the same compound?
**A.** > 100 µM

**Q.** And the TGI (NCI-H226 lung)?
**A.** > 100 µM

**Q.** What about the TGI (NCI-H460 lung) of the same compound?
**A.** > 100 µM

**Q.** And the TGI (SN12C renal)?
**A.** > 100 µM

**Q.** With `O=[N+]([O-])c1ccc2c(c1)c(N=NC(=S)NC1CCCCC1)c(O)n2CN1CCOCC1` as the compound, how does the TGI (CAKI-1 renal) read?
**A.** 14.3 µM

**Q.** And the TGI (UACC-62 melanoma)?
**A.** 20.5 µM

**Q.** What about the TGI (RXF 393 renal) of the same compound?
**A.** 29 µM

**Q.** What about the TGI (UACC-257 melanoma) of the same compound?
**A.** 22.7 µM

**Q.** What about the TGI (SR leukemia) of the same compound?
**A.** 21.5 µM

**Q.** What about the TGI (OVCAR-8 ovarian) of the same compound?
**A.** 17.4 µM

**Q.** And the TGI (A498 renal)?
**A.** 17.5 µM

**Q.** And the TGI (CCRF-CEM leukemia)?
**A.** 2.75 µM

**Q.** And the TGI (NCI-H522 lung)?
**A.** 30.3 µM

**Q.** And the TGI (U251 CNS)?
**A.** 17.3 µM

**Q.** And the TGI (HT29 colon)?
**A.** 17.9 µM

**Q.** What about the TGI (HCT-116 colon) of the same compound?
**A.** 16.2 µM

**Q.** What about the TGI (MALME-3M melanoma) of the same compound?
**A.** 24.4 µM

**Q.** What about the TGI (SNB-19 CNS) of the same compound?
**A.** 22.2 µM

**Q.** And the TGI (EKVX NSCLC)?
**A.** 14.1 µM

**Q.** What about the TGI (786-0 renal) of the same compound?
**A.** 18.6 µM

**Q.** And the TGI (SF-295 CNS)?
**A.** 16.6 µM

**Q.** What about the TGI (MOLT-4 leukemia) of the same compound?
**A.** > 100 µM

**Q.** And the TGI (K-562 leukemia)?
**A.** > 100 µM

**Q.** And the TGI (KM12 colon)?
**A.** 18 µM

**Q.** And the TGI (COLO 205 colon)?
**A.** 23.4 µM

**Q.** And the TGI (PC-3 prostate)?
**A.** 19 µM

**Q.** And the TGI (SK-MEL-2 melanoma)?
**A.** 25.9 µM

**Q.** What about the TGI (LOX IMVI melanoma) of the same compound?
**A.** 19.3 µM

**Q.** What about the TGI (MCF7 breast) of the same compound?
**A.** 17.4 µM

**Q.** And the TGI (ACHN renal)?
**A.** 18 µM

**Q.** What about the TGI (HOP-62 NSCLC) of the same compound?
**A.** 23.8 µM

**Q.** What about the TGI (BT-549 breast) of the same compound?
**A.** 20.8 µM

**Q.** What about the TGI (OVCAR-5 ovarian) of the same compound?
**A.** 23.8 µM

**Q.** And the TGI (T-47D breast)?
**A.** 17.7 µM

**Q.** And the TGI (SK-MEL-28 melanoma)?
**A.** 25.6 µM

**Q.** And the TGI (SK-OV-3 ovarian)?
**A.** 25.9 µM

**Q.** What about the TGI (HL-60(TB) leukemia) of the same compound?
**A.** 17.2 µM

**Q.** And the TGI (MDA-MB-435)?
**A.** 20 µM

**Q.** What about the TGI (HCC-2998 colon) of the same compound?
**A.** 17.6 µM

**Q.** What about the TGI (A549 NSCLC) of the same compound?
**A.** 15.7 µM

**Q.** And the TGI (UO-31 renal)?
**A.** 18.4 µM

**Q.** What about the TGI (HS 578T breast) of the same compound?
**A.** 45.8 µM

**Q.** What about the TGI (OVCAR-4 ovarian) of the same compound?
**A.** 17.9 µM

**Q.** What about the TGI (DU-145 prostate) of the same compound?
**A.** 26.8 µM

**Q.** And the TGI (TK-10 renal)?
**A.** 19.4 µM

**Q.** And the TGI (RPMI-8226 leukemia)?
**A.** 52.6 µM

**Q.** And the TGI (HOP-92 NSCLC)?
**A.** 12.9 µM

**Q.** And the TGI (OVCAR-3 ovarian)?
**A.** 20.4 µM

**Q.** And the TGI (MDA-N)?
**A.** 20 µM

**Q.** What about the TGI (SW-620 colon) of the same compound?
**A.** > 100 µM

**Q.** What about the TGI (M14 melanoma) of the same compound?
**A.** 21.8 µM

**Q.** And the TGI (SNB-75 CNS)?
**A.** 24.2 µM

**Q.** What about the TGI (NCI/ADR-RES ovarian) of the same compound?
**A.** 18.7 µM

**Q.** And the TGI (HCT-15 colon)?
**A.** 15.6 µM

**Q.** What about the TGI (IGROV1 ovarian) of the same compound?
**A.** 15.4 µM

**Q.** And the TGI (SF-539 CNS)?
**A.** 25.4 µM

**Q.** And the TGI (MDA-MB-231 breast)?
**A.** 31.8 µM

**Q.** And the TGI (SF-268 CNS)?
**A.** 19.2 µM

**Q.** And the TGI (NCI-H23 lung)?
**A.** 21.4 µM

**Q.** And the TGI (SK-MEL-5 melanoma)?
**A.** 11.3 µM

**Q.** What about the TGI (NCI-H226 lung) of the same compound?
**A.** 66 µM

**Q.** What about the TGI (NCI-H460 lung) of the same compound?
**A.** 13.5 µM

**Q.** What about the TGI (SN12C renal) of the same compound?
**A.** 19.7 µM
